{"source": "paper PMC11724075", "about": "“Small-molecule-induced ERBB4 activation to treat heart failure” (Nature Communications, 2025)", "key": {"ERBB2/ERBB4": {"target": "T1, ERBB2/ERBB4 (Homo sapiens, UniProt Q15303)", "T1 construct": "host or cells: U2OS (osteosarcoma cells), PathHunter engineered line", "T1 sequence (Q15303 26-1308)": "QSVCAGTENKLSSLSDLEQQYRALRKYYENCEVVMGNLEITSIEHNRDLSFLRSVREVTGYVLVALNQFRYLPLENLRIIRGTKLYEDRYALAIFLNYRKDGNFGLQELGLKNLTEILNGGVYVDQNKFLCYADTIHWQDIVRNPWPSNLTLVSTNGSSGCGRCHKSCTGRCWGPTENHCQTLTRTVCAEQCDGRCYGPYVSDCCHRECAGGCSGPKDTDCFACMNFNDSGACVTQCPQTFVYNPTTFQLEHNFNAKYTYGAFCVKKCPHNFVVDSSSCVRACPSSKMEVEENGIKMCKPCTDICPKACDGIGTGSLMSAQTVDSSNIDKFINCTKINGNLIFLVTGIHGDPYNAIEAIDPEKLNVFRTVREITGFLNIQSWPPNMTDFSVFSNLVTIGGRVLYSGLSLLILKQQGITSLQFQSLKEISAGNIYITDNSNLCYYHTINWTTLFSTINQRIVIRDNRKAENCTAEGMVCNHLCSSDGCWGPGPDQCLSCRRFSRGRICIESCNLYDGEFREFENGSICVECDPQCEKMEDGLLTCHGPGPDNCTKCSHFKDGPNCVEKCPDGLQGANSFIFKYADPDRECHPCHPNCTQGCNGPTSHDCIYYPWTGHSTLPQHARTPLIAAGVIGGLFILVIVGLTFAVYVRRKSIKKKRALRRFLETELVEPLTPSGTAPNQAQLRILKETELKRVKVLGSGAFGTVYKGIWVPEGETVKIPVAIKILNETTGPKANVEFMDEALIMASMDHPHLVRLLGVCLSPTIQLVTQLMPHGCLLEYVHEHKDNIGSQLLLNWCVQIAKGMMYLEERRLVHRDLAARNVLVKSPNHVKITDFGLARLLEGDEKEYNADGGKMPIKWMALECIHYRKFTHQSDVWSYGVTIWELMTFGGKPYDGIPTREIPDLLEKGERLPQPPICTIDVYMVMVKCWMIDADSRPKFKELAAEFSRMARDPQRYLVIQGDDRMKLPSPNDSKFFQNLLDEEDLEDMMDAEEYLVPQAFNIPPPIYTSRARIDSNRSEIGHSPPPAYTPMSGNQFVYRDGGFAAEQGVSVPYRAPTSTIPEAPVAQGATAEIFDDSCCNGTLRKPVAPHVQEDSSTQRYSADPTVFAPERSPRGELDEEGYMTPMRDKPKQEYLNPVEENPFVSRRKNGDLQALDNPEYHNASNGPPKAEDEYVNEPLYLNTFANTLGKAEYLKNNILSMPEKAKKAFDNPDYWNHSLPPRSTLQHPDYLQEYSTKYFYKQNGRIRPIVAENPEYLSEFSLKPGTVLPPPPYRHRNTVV", "T1 sequence (P04626 23-1255 partner)": "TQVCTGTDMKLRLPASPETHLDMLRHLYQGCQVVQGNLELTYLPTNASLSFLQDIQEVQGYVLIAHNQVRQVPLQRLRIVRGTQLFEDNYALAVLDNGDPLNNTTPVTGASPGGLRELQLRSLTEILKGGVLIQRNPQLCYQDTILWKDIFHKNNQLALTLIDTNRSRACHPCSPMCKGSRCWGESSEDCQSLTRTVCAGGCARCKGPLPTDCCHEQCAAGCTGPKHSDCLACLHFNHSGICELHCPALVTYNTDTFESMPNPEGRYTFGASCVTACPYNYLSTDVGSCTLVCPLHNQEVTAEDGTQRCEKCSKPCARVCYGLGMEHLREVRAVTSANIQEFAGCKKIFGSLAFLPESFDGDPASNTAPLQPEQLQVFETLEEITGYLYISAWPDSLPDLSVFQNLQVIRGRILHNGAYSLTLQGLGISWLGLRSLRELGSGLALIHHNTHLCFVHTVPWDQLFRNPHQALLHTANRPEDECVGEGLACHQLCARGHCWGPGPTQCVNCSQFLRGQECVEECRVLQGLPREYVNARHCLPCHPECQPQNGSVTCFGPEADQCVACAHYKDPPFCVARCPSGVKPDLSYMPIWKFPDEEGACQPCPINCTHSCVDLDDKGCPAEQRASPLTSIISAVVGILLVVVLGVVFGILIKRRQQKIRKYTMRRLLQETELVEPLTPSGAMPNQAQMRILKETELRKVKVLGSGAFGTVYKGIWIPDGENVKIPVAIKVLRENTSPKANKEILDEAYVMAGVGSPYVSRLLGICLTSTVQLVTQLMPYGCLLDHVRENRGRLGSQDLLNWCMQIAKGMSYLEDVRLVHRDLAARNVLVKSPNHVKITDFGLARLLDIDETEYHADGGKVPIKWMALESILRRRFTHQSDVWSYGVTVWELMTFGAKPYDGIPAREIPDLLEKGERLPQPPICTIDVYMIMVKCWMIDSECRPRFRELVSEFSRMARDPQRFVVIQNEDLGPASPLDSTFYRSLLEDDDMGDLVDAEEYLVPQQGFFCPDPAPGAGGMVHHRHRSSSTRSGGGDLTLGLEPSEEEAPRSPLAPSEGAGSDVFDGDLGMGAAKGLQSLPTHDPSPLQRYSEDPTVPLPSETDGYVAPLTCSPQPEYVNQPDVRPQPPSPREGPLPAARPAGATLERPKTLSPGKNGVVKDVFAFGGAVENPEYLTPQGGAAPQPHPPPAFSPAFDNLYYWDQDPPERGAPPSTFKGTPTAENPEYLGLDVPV", "experiment": "PathHunter U2OS ERBB2/ERBB4 dimerization assay", "assay_type": "cell-based", "conditions": "for ERBB4/ERBB2 dimerization signal: relative to signal with 0.1 µM NRG1, single biological replicates", "procedure": "PathHunter U2OS ERBB4/ERBB4 (osteosarcoma cells; Eurofins, 93-0961C3), U2OS ERBB2/ERBB4 (osteosarcoma cells; Eurofins, 493-0960C3), ERBB2/ERBB3 (osteosarcoma cells; Eurofins, 93-1042C3) and ERBB1/ERBB1 (osteosarcoma cells; Eurofins, 93-0989C3) dimerization cell lines were cultured according to the manufacturer’s instructions. Briefly, cells were cultured in Cell Culture Reagent 103 (Eurofins, 92-3103 G) supplemented with 250 µg/mL Hygromycin B (Eurofins, 92-0029) and 500 µg/mL G418 (Eurofins, 92-0030), and were maintained at 37 °C in humidified atmosphere of 5% CO2. HCFs (Innoprot, P10454) were cultured in fibroblast medium (Innoprot, P60108) supplemented with 10% (v/v) fetal bovine serum (FBS, Innoprot), 10% (v/v) fibroblast growth supplement (Innoprot), and 1% (v/v) penicillin/streptomycin solution (Innoprot). iAMs[33] (kindly provided by LUMC) were cultured in Advanced DMEM F-12 (Thermo Fisher Scientific, 12634028) supplemented with 2% (v/v) heat-inactivated FBS (Thermo Fisher Scientific, 10270106), 1% (v/v) penicillin/streptomycin (10,000 units/mL and 10 mg/mL respectively, Thermo Fisher Scientific, 15140122), 1× GlutaMAX (Thermo Fisher Scientific, 35050061), and 100 ng/mL doxycycline (Tocris, 4090) for proliferation. To induce differentiation, iAMs were transferred to medium without doxycycline.\nU2OS ERBB4/ERBB4 dimerization cells were seeded at a density of 5 × 10^4 cells/well in 100 µL Cell Plating 0 Reagent, in white 96-well plates (PerkinElmer, 6005680) and incubated for 24 h at 37 °C, 5% CO2. […] Next, 110 µL PathHunter Flash Detection Reagent was added to each well and incubated at RT for 1 h after which the luminescence signal was measured using the Luminoskan Ascent (Thermo Fisher Scientific). […] The same experimental set-up was used for the U2OS ERBB2/ERBB4, U2OS ERBB2/ERBB3 and U2OS ERBB1/ERBB1 dimerization cell lines."}, "iCAGCre-Erbb4f/f mice": {"system": "iCAGCre-Erbb4f/f mice", "experiment": "AngII-induced fibrosis in iCAGCre-Erbb4f/f mice injected with corn oil without tamoxifen", "assay_type": "in vivo, mouse", "description": "Floxed Erbb4 mice (Erbb4^f/f; C57BL/6N; 129-Erbb4tm1Fej/Mmucd, MMRRC, #010439-UCD) were crossed with CAGGCre-ER^TM mice (Jackson Laboratory, 004682) containing the Tg(CAG-cre/Esr1*)5Amc transgene that expresses Cre recombinase under the control of a chicken beta actin promoter/enhancer coupled to the human cytomegalovirus immediate-early gene enhancer, resulting in expression of tamoxifen-inducible Cre-ERT in most cell types. To induce Cre recombinase-mediated deletion of Erbb4, eleven-week-old female and male iCAGGCre-ER^TM/Erbb4^f/f mice were intraperitoneally injected with tamoxifen (Merck, T5648; 10 mg/kg; in corn oil) daily for 5 consecutive days.\nHearts were fixed in 4% PFA, paraffin-embedded, and cut into 5-µm sections. Images were acquired with an Olympus BX43 microscope (Olympus Stream Motion Software) or a CELENA® S Digital Imaging System and analyzed with ImageJ 2.14.0 software. Collagen distribution was visualized by Masson’s trichrome staining. Cardiac total fibrosis was expressed as the ratio of positively stained fibrotic area (blue) to the total area and perivascular fibrosis as the ratio of fibrotic area to vascular lumen area. Scar size was determined by measuring the scar length over the […]. Hypertrophy and vascularisation were visualized via an isolectin-B4/WGA/DAPI staining. Quantification was performed by a person blinded to the treatment protocol.\nSupplementary Figure 6. Effect of AngII in male WT mice with compound NA-1 and the validation of genotype and phenotype of iCAGCre-Erbb4 f/f mice. […]\nUncropped gel is presented in Supplementary Figure 9. (c) Survival curve depicting the effects of 1000 ng/kg AngII treatment on mouse survival (ctrl = black line; 1000 ng/kg AngII = red line; n=6 male and female mice in Ctrl group and n=15 mice who received 1000 ng/kg AngII treatment). (d) Representative images of Masson’s trichrome staining of AngII-induced myocardial fibrosis in iCAGCre- […]\nand n=10 male and female ice in AngII/Veh group). Scale bar = 500 µm for total fibrosis, scale bar = 50 µm for perivascular fibrosis. […]"}}, "note": "Where “and” joins values, the source holds several entries; their conditions need not be identical. Equal entries are not always repeated."}
{"smiles": "O=C(NC1CC1)C(Sc1nc2ccccc2c(=O)n1C1CCCC1)c1ccccc1", "note": "(stereo not shown) [EF-1]", "values": [{"measurement": "EC50", "setting": "ERBB2/ERBB4", "value": "> 32", "unit": "µM"}, {"measurement": "ERBB4/ERBB2 dimerization signal", "setting": "ERBB2/ERBB4; 3.125e-8 M", "value": 0}, {"measurement": "ERBB4/ERBB2 dimerization signal", "setting": "ERBB2/ERBB4; 6.25e-8 M", "value": "10.52 and 1.76 and 3.95 and -0.62 and 8.84 and 32.1 and -4.84 and 13.1"}, {"measurement": "ERBB4/ERBB2 dimerization signal", "setting": "ERBB2/ERBB4; 1.25e-7 M", "value": "11.16 and 1.7 and 0.22 and 2.37 and 10.84 and 42.31 and 0.8 and 15.8"}, {"measurement": "ERBB4/ERBB2 dimerization signal", "setting": "ERBB2/ERBB4; 2.5e-7 M", "value": "14.28 and 2.37 and -0.2 and 2.18 and 11.16 and 44.62 and 2.21 and 32.89"}, {"measurement": "ERBB4/ERBB2 dimerization signal", "setting": "ERBB2/ERBB4; 5e-7 M", "value": "15.8 and 3.34 and -0.84 and 2.5 and 14.03 and 46.76 and 10.28 and 38.19"}, {"measurement": "ERBB4/ERBB2 dimerization signal", "setting": "ERBB2/ERBB4; 1e-6 M", "value": "17.47 and 6.72 and 2.79 and 5.79 and 18.63 and 53.25 and 13.21 and 49.02"}, {"measurement": "ERBB4/ERBB2 dimerization signal", "setting": "ERBB2/ERBB4; 2e-6 M", "value": "23.23 and 10.36 and 6.17 and 10.55 and 22.36 and 58.49 and 25.9 and 62.1"}, {"measurement": "ERBB4/ERBB2 dimerization signal", "setting": "ERBB2/ERBB4; 4e-6 M", "value": "39.65 and 19.88 and 18.63 and 20.82 and 41.51 and 62.22 and 30.3 and 62.16"}, {"measurement": "ERBB4/ERBB2 dimerization signal", "setting": "ERBB2/ERBB4; 8e-6 M", "value": "43.57 and 23.14 and 20.33 and 27.19 and 40.97 and 69.15 and 32.21 and 63.74"}, {"measurement": "ERBB4/ERBB2 dimerization signal", "setting": "ERBB2/ERBB4; 1.6e-5 M", "value": "49.69 and 37.91 and 30.09 and 36.81 and 54.68 and 124.7 and 60.3 and 94.64"}, {"measurement": "ERBB4/ERBB2 dimerization signal", "setting": "ERBB2/ERBB4; 3.2e-5 M", "value": "99.26 and 72.09 and 64.59 and 71.61 and 99.65 and 139.93 and 119.85 and 114.61"}, {"measurement": "efficacy in ERBB2/ERBB4 dimerization assay at the highest concentration (in words)", "setting": "ERBB2/ERBB4; highest concentration", "value": "like the natural ligand NRG1"}, {"measurement": "Perivascular fibrosis male+female in vivo corn oil-treated iCAGCre-Erbb4f/f mice with EF-1", "setting": "iCAGCre-Erbb4f/f mice; AngII/EF-1, individual animals", "value": "0.8706 and 1.275 and 0.6537 and 2.675 and 0.6132 and 2.541 and 1.901 and 0.8014"}, {"measurement": "Total fibrosis male+female in vivo corn oil-treated iCAGCre-Erbb4f/f mice with EF-1", "setting": "iCAGCre-Erbb4f/f mice; AngII/EF-1, individual animals", "value": "3.59 and 3.39 and 3.18 and 4.74 and 4.82 and 3.84 and 3.53 and 4.29 and 4.51"}, {"measurement": "inhibitory effects on AngII-induced interstitial and perivascular fibrosis (in words)", "setting": "iCAGCre-Erbb4f/f mice; iCAGCre-Erbb4f/f mice injected with corn oil without tamoxifen", "value": "preserved"}]}
